In ChEMBL document CHEMBL6153029, “Next-generation cancer therapeutics: PROTACs and the role of heterocyclic warheads in targeting resistance” (Eur J Med Chem, 2025):

How the values were obtained:
[1] = target: Platelet-derived growth factor receptor beta (Homo sapiens) (UniProt P09619); assay: Inhibition of PDGFRbeta (unknown origin) measured for 48 hrs at 10 uM relative to control
[2] = target: T1, Bromodomain-containing protein 4 (Homo sapiens, UniProt O60885); assay: Inhibition of BRD4 (unknown origin)
[3] = target: Mitogen-activated protein kinase kinase kinase kinase 1 (Homo sapiens, UniProt Q92918); assay: Inhibition of HPK1 (unknown origin)
[4] = test system: Hs-578T; assay: Antiproliferative activity against human Hs-578T cells; format: functional, cell-based
[5] = test system: LNCaP C4-2B; assay: Antiproliferative activity against human LNCaP C4-2B cells; format: functional, cell-based
[6] = test system: MV4-11; assay: Antiproliferative activity against human MV4-11 cells; format: functional, cell-based
[7] = test system: CWR22R; assay: Antiproliferative activity against human 22Rv1 cells; format: functional, cell-based
[8] = test system: MOLM-13; assay: Antiproliferative activity against human MOLM-13 cells; format: functional, cell-based
[9] = test system: LNCaP; assay: Antiproliferative activity against human LNCaP cells; format: functional, cell-based
[10] = target: T1, Bromodomain-containing protein 4; assay: Binding affinity to BRD4 (unknown origin) assessed as dissociation constant
[11] = test system: MCF7; assay: Antiproliferative activity against human MCF7 cells assessed as reduction in cell viability at 25 uM incubated for 72 hrs by resazurin based assay relative to control; format: functional
[12] = test system: MCF7; assay: Antiproliferative activity against human MCF7 cells assessed as reduction in cell viability incubated for 48 hrs by MTT assay; format: functional, cell-based; details: MCF7, 48 h
[13] = test system: Pfeiffer; assay: Antiproliferative activity against human Pfeiffer cells
[14] = test system: Pfeiffer; assay: Induction of cell cycle arrest in human Pfeiffer cells assessed as G0/G1 phase arrest at 100 nM incubated for 24 hrs by PI staining based flow cytometry analysis; format: functional
[15] = test system: MCF7; assay: Antiproliferative activity against human MCF7 cells
[16] = Half life in mouse; format: ADME, organism-based; details: in vivo
[17] = Intrinsic clearance in mouse liver microsomes; format: ADME, Microsome; details: read-out: CLH
[18] = test system: MDA-MB-231; assay: Induction of cell cycle arrest in human MDA-MB-231 cells assessed as G0/G1 phase arrest at 12.3 to 1000 nM incubated for 24 hrs by PI staining based flow cytometry analysis; format: functional; details: dose 12.3-1000 nM
[19] = test system: T47D; assay: Antiproliferative activity against human T47D cells
[20] = test system: MDA-MB-468; assay: Antiproliferative activity against human MDA-MB-468 cells
[21] = test system: MDA-MB-231; assay: Antiproliferative activity against human MDA-MB-231 cells
[22] = test system: Calu-6; assay: Antiproliferative activity against human Calu-6 cells assessed as reduction in cell viability incubated for 72 hrs by CCK-8 assay; format: functional, cell-based; details: Calu-6, 72 h
[23] = test system: A-375; assay: Antiproliferative activity against human A-375 cells assessed as reduction in cell viability incubated for 72 hrs by CCK-8 assay; format: functional, cell-based; details: A-375, 72 h
[24] = test system: HCT-116; assay: Antiproliferative activity against human HCT-116 cells assessed as reduction in cell viability incubated for 72 hrs by CCK-8 assay; format: functional, cell-based; details: HCT-116, 72 h
[25] = target: T2, Protein cereblon/Mitogen-activated protein kinase 3/Mitogen-activated protein kinase 1 (Homo sapiens, UniProt P27361+P28482+Q96SW2); assay: PROTAC activity at CRBN/ERK1/2 in human Calu-6 cells assessed as induction of ERK1/2 degradation incubated for 48 hrs by Western blot analysis; format: cell-based
[26] = target: T2, Protein cereblon/Mitogen-activated protein kinase 3/Mitogen-activated protein kinase 1; assay: PROTAC activity at CRBN/ERK1/2 in human HCT-116 cells assessed as induction of ERK1/2 degradation incubated for 48 hrs by Western blot analysis; format: cell-based
[27] = test system: NCI-H1975; assay: Antiproliferative activity against human NCI-H1975 cells assessed as reduction in cell viability by MTT assay; format: functional, cell-based
[28] = test system: A549; assay: Antiproliferative activity against human A549 cells assessed as reduction in cell viability by MTT assay; format: functional, cell-based
[29] = test system: U-87 MG; assay: Antiproliferative activity against human U87 cells; format: functional, cell-based, U-87MG ATCC

T2 sequence (P27361 whole entry): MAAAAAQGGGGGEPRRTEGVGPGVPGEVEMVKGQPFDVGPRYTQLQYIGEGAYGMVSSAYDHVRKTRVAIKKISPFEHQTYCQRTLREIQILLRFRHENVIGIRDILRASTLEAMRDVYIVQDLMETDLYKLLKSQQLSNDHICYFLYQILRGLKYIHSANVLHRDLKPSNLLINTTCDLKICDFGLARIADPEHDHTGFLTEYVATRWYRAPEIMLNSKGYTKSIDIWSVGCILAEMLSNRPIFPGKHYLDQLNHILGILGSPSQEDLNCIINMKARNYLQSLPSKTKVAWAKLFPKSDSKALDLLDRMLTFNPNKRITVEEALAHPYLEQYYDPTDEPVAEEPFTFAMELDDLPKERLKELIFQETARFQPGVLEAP
T2 sequence (P28482 whole entry): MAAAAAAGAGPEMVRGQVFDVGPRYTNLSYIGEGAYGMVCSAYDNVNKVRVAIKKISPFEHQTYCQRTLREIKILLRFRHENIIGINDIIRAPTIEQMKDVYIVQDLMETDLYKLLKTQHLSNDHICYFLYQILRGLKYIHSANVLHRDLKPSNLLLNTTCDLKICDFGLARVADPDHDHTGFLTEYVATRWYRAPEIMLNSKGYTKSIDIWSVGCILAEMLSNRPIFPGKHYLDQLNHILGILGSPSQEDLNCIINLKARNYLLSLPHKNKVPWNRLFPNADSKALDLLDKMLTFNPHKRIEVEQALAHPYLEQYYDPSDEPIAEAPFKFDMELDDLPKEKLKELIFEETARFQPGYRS
T2 sequence (Q96SW2 whole entry): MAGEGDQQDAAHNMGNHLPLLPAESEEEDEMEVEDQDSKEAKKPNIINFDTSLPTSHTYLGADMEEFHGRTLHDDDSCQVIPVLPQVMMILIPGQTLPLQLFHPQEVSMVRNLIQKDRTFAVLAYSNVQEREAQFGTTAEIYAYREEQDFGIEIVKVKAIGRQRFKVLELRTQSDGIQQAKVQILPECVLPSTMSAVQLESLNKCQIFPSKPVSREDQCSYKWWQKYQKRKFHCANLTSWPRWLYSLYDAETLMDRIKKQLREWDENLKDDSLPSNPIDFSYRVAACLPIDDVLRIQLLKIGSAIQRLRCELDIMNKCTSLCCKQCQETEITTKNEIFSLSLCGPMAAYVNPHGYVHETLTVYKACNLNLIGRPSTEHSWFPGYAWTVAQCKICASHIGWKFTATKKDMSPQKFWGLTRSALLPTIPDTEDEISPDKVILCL
Chain of Mitogen-activated protein kinase kinase kinase kinase 1 (Q92918 whole entry): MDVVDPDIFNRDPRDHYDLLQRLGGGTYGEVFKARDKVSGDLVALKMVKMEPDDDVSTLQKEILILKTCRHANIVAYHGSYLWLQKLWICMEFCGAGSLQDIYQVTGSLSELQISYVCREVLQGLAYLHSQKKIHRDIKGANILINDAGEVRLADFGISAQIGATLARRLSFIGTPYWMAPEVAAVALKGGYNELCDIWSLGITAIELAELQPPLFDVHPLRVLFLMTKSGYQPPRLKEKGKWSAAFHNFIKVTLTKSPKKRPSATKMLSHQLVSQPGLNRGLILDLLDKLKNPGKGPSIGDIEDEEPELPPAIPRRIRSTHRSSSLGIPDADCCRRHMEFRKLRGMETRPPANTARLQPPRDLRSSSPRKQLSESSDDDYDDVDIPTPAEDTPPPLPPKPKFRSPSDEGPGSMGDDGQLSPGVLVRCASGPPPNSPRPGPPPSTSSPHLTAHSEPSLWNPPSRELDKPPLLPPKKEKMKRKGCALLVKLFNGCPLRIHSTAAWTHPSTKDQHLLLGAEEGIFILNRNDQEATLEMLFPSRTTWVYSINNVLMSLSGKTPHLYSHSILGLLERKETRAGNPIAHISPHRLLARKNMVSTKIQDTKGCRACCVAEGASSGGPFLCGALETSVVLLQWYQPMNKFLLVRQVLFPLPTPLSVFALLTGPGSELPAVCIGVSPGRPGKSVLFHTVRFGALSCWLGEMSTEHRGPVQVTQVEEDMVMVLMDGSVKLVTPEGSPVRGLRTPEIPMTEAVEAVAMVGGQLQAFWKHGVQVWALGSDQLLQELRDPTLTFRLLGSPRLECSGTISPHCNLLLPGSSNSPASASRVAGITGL
Chain of Platelet-derived growth factor receptor beta (Homo sapiens) (P09619 whole entry): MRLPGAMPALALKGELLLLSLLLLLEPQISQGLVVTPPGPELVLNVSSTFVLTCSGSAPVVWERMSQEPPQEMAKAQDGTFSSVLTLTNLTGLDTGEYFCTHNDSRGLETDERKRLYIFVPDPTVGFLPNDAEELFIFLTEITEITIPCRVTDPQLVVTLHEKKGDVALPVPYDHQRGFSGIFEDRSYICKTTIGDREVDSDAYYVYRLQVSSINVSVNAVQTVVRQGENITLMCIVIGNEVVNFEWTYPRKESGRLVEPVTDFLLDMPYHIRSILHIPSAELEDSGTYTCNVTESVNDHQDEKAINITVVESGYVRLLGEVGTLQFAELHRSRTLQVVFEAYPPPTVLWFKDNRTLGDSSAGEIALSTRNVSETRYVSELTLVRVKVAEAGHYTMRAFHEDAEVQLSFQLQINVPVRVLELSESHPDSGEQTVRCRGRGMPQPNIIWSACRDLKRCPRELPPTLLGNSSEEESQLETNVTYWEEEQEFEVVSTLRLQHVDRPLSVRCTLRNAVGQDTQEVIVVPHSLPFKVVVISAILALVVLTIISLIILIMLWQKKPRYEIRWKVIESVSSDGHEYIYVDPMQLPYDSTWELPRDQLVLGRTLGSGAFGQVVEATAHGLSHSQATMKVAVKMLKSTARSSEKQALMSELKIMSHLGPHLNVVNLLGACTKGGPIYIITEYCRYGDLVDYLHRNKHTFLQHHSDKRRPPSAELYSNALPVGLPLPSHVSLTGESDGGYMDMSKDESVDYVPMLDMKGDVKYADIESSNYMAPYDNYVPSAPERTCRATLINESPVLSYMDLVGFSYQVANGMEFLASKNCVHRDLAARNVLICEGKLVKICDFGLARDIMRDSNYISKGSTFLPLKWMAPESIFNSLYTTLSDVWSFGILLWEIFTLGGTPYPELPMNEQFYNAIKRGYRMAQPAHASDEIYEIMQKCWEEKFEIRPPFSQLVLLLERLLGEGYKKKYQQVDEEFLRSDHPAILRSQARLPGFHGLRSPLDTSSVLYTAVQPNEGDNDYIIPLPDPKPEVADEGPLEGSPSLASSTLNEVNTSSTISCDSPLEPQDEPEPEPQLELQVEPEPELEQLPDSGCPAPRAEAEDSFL

## Cc1ncsc1-c1ccc(CNC(=O)[C@@H]2C[C@@H](O)CN2C(=O)[C@@H](NCCCCNC(=O)CNC(=O)c2cc(Oc3ccc(NC(=O)Nc4ccc(Cl)c(C(F)(F)F)c4)cc3)ccn2)C(C)(C)C)cc1
[1]
  inhibition: > 70%

## CCS(=O)(=O)Nc1ccc(Oc2ccc(F)cc2F)c(-c2cn(C)c(=O)c3[nH]ccc23)c1 [MIVEBRESIB]
[2]
  IC50: 2.6 nM

## COc1ccc(-c2c[nH]c3ccc(-c4ccc(N5CCN(C(=O)CCCCCNc6cccc7c6C(=O)N(C6CCC(=O)NC6=O)C7=O)CC5)cc4)cc23)cc1OC (centres undefined)
[3]
  IC50: 614 nM

## COc1ccc(Br)cc1S(=O)(=O)Nc1cc2c(C)noc2cc1OCCOCCOCCOCCOCCOCCOc1cc2onc(C)c2cc1NS(=O)(=O)c1cc(Br)ccc1OC
[4]
  IC50: 1360 nM
[5]
  IC50: 930 nM
[6]
  IC50: 450 nM
[7]
  IC50: 900 nM
[8]
  IC50: 450 nM
[9]
  IC50: 525 nM
[10]
  Kd: 741 nM

## Nc1nc2cc(-c3nn(Cc4cn(CCCCCC(=O)Nc5cccc6c5C(=O)N(C5CCC(=O)NC5=O)C6=O)nn4)c4ncnc(N)c34)ccc2o1 (centres undefined)
[11]
  Activity: 90%
[12]
  IC50: 87 nM

## COc1cc(C)[nH]c(=O)c1CNC(=O)c1cccc2c1c(C)cn2[C@H](C)C1CCN(CCCCCCCCCC(=O)N[C@H](C(=O)N2C[C@H](O)C[C@H]2C(=O)NCc2ccc(-c3scnc3C)cc2)C(C)(C)C)CC1
[13]
  IC50: 2050 nM
[14]
  Activity: 11.74%
[15]
  IC50: 4150 nM
[16]
  half-life: 1.07 h
[17]
  CLint scaled: 150 mL/min/kg
[18]
  Activity: 68.38%
[19]
  IC50: 6850 nM
[20]
  IC50: 1400 nM
[21]
  IC50: 4480 nM

## Cc1cccc(CN2C(=O)c3cc(-c4nc(Nc5ccnc(C#CCCN(C)C)c5)ncc4C)cn3C[C@H]2C)n1
[22]
  IC50: 15900 nM
[23]
  IC50: > 30000 nM
[24]
  IC50: 2100 nM
[25]
  DC50: 85 nM
[26]
  DC50: 102 nM

## COc1cc2ncnc(Nc3ccc(Cl)c(Cl)c3F)c2cc1Oc1ccc(NC(=O)CCCCCCC(=O)Nc2cccc3c2CN(C2CCC(=O)NC2=O)C3=O)cc1 (centres undefined)
[27]
  IC50: 2100 nM
[28]
  IC50: 67000 nM

## Cc1ncsc1-c1ccc(CNC(=O)[C@@H]2C[C@@H](O)CN2C(=O)[C@@H](NC(=O)CCC(=O)Nc2ccc(-c3nncc4c3C3CC4CC3C(=O)NCCCC(=O)n3nc(N)c4c(-c5ccc(NC(=O)Nc6cccc(Cl)c6)cc5)cccc43)cc2)C(C)(C)C)cc1 (some centres undefined)
[29]
  IC50: 910 nM
